# Test results from patent US12053452B2 (priority 2021, dated 2024).
# “Also recorded” adds a separate entry of the source. Structures can show the parent of a compound that is named as a salt. Where two headings read alike, the source gives them in different places.
# What was measured:
# [1] = human urine, after racemic MDMA; cited from earlier work
# C57 mice [2] = assay: Social preference procedure: compartment entries (proxy for locomotor stimulant effects), C57; format: in vivo; conditions: 10 mg/kg IP, social novelty test, 10 mg/kg
# Procedure: (§1) This assay was conducted in adult male C57 and BTBR mice (n=6 per group) in a dedicated conditioning room where ambient light, sound, and human contact were tightly controlled. Social preference chambers consist of two polycarbonate boxes (13.5 cm wide×22.5 cm tall×31.0 cm deep), floored with rough-textured black ABS plastic, and connected to one another by a 1.25″ PVC T-junction. An infrared photobeam emitter/detector array is mounted at each intersection of the T-junction and each preference compartment, and as a mouse traversed the apparatus, it would break the photobeam upon entry to or exit from each preference compartment. Beam breaks started or stopped a counter on an interfaced computer, allowing automated collection of time spent in each compartment. At the end of each test, data were reported as time (in seconds) spent in each compartment, the number of entries into each compartment, and the average time spent in each compartment following an entry. Social preference tests were conducted in an iterative manner, with each test subject completing four distinct phases as described below. Between testing sessions, chambers were sanitized by wiping the insides with a disinfectant product provided by the UAMS Department of Laboratory Animal Medicine. At the end of the week (upon completion of all phases of the procedure), each apparatus was disassembled and all parts were sanitized. No food or water were available during social preference sessions, but were available in the home cage immediately afterwards.
# (§2) Quantification of total entries into the preference compartments provided a proxy measurement for locomotor stimulant effects of the various doses of the various test drugs. This established a limit to the drug doses that can be tested in the social preference procedure, as induction of locomotor stimulant effects confounds preference assessments (because mice stop attending to the social stimuli in each compartment and instead spend their time engaged in locomotor behavior.) Motor activity varied across the distinct phases of social preference testing, in part because the habituation session is twice as long (30 minutes) as the novelty, sociability, and social novelty tests (15 minutes each), but also because mice emitted high levels of exploratory behavior in novel environments. Thus, as familiarity with the test apparatus increased over successive exposures to the chambers, the number of entries decreased.
# (§3) (Note that entries were collected for every test, but drug effects on entries during earlier phases may be less reliable due to the confounding influence of changing familiarity with the apparatus across phases.)
# BTBR mice [3] = assay: Social preference procedure: compartment entries (proxy for locomotor stimulant effects), BTBR; format: in vivo
# Procedure: as §1, §2, §3
# C57 mice [4] = assay: Novelty preference test, C57; format: in vivo
# Procedure: as §1
# A single novelty preference session occurred the day after the habituation test, where one compartment contained an empty wire mesh cup and the other compartment contained an identical wire mesh cup with a novel dummy mouse inside. The position of the dummy mouse (left or right compartment) was counterbalanced across subjects. Dummy mice were constructed from 2.5″ lengths of white ¾″ PVC pipe, with a zip tie attached to one end (to mimic a tail) and two red dots drawn on the other end (to mimic eyes.) During this session, mice were weighed, administered an injection, and returned to their home cage for a 30 min pretreatment period. Mice were then introduced into the T-junction and allowed to explore both preference compartments for 15 minutes. These tests were conducted as a procedural control to ensure that any observed drug effects were not simply due to enhancement of the innate novelty preference of mice. Novelty preference sessions always occurred on Tuesdays or Wednesdays to prevent any weekend testing.
# C57 mice [5] = assay: Sociability test, C57; format: in vivo
# Procedure: as §1
# A single sociability session occurred the day after the novelty preference test, where one compartment contained a wire mesh cup with a dummy mouse inside while the other compartment contained a male NIH Swiss stranger mouse inside the previously empty cup. […] The position of the dummy mouse (left or right compartment) remained the same for each subject as during the novelty test the day before, thereby counterbalancing the position of the stranger mouse across subjects. NIH Swiss stranger mice were similar in mass and appearance to the dummy PVC mice, and were housed separately from the experimental subjects (C57 and BTBR mice) in the colony facility. The first time the experimental subjects ever encountered the stranger mice was when they entered the compartment where they were contained. During this session, mice were weighed, administered the same injection as the day before, and returned to their home cage for a 30 min pretreatment period. Mice were then introduced into the T-junction and allowed to explore both preference compartments for 15 minutes. Sociability tests always occurred on Wednesdays or Thursdays to prevent any weekend testing.
# C57 mice [6] = assay: Social novelty preference test, C57; format: in vivo
# Procedure: as §1
# A single social novelty preference session occurred the day after the sociability test, where one compartment contained a wire mesh cup with the same NIH Swiss mouse from the previous day inside (referred to now as the “familiar” mouse) while the other compartment contained a new male NIH Swiss stranger mouse inside the cup which previously contained the dummy mouse during the sociability test. […] The position of the now familiar NIH Swiss mouse (left or right compartment) remained the same for each subject as during the sociability test the day before, thereby counterbalancing the position of the new NIH Swiss stranger mouse across subjects. As before, the new NIH Swiss stranger mice were housed separately from the experimental subjects (C57 and BTBR mice) in the colony facility, and the first time the experimental subjects ever encountered them was when they entered the compartment where they were contained. During this session, mice were weighed, administered the same injection as the day before, and returned to their home cage for a 30 min pretreatment period. Mice were then introduced into the T-junction and allowed to explore both preference compartments for 15 minutes. Social novelty tests always occurred on Thursdays or Fridays to prevent any weekend testing.
# BTBR mice [7] = assay: Social novelty preference test, BTBR (autism spectrum disorder model); format: in vivo; conditions: in vivo mice models of autism spectrum disorder (BTBR)
# Procedure: as §1
# A single social novelty preference session occurred the day after the sociability test, where one compartment contained a wire mesh cup with the same NIH Swiss mouse from the previous day inside (referred to now as the “familiar” mouse) while the other compartment contained a new male NIH Swiss stranger mouse inside the cup which previously contained the dummy mouse during the sociability test. […]
# C57 mice [8] = assay: Radiotelemetry of core temperature, C57; format: in vivo
# Procedure: (§4) The radiotelemetry assay was conducted in adult male C57 and BTBR mice (n=6 per group) in a dedicated testing room where ambient light, sound, and human contact were tightly controlled.
# (§5) Prior to surgical implantation of radiotelemetry probes, mice received 3 mg/kg meloxicam (IP), and anesthesia was induced with 4% inhaled isoflurane and maintained with 1-3% isoflurane (as needed) throughout the procedure at a flow rate of 1.5 litres/minute. The abdominal area of each animal was treated with depilatory cream, then sanitized with 3 alternating scrubs with iodine and alcohol. A rostral-caudal cut approximately 1.5 cm in length was made with sterile skin scissors, providing access to the intraperitoneal cavity. A cylindrical glass-encapsulated radiotelemetry probe (model ER-4000 E-Mitter, Mini Mitter, Bend, OR, USA) was then inserted. These probes measure 15.5 mm×6.5 mm and weigh approximately 1 gram. Incisions were closed (skin layer and muscle layer separately) using reverse cutting 5-0 Vicryl absorbable sutures for the muscle layer and 5-0 nylon suture material for the skin layer. Surgeries were carried out at least 7 days before initiation of experimental conditions, allowing time for incisions to heal and for animals to recover normal body weights. Following surgery, all implanted mice were individually housed in Plexiglas cages within the telemetry room for the duration of all experiments. Implanted transmitters produce activity- and temperature-modulated signals which are sent to a receiver (model ER-4000 Receiver, Mini Mitter Co., Inc.) underneath each cage. Following use, telemetry probes were removed from carcasses, wiped with alcohol swabs, and stored in the disinfectant solution until re-use.
# (§6) At least 7 days after surgical implantation of radiotelemetry probes, mice in their individual home cages were placed atop a telemetry energizer/receiver, which powered probes and transmitted their data to an interfaced computer. Upon initiation of an experimental session, the computer collected two data updates from the probes at 5 min intervals: core temperature (in ° C.) on one channel, and locomotor counts (in arbitrary units, depending on the relative position of the probe atop the receiver) on the other. After at least 60 minutes of baseline data collection, mice were removed from their cages, injected with saline or a given dose of a specific drug, then returned to the home cage 24 hours of data collection.
# (§7) Food and water were always freely available in the home cage. Mice were injected with ascending doses of a given drug, with at least 48 hours separating doses. Because there are few studies of drug effects in BTBR mice, the first drug dose tested occasionally elicited unexpectedly large locomotor effects in these animals. In these cases, smaller drug doses were tested next, after a washout period of at least one full day.
# BTBR mice [9] = assay: Radiotelemetry of core temperature, BTBR; format: in vivo
# Procedure: as §4, §5, §6, §7
# BTBR mice [10] = assay: Radiotelemetry of locomotor activity, BTBR; format: in vivo; conditions: 0 to 240 minutes
# Procedure: as §4, §5, §6, §7
# C57 mice [11] = conditions: mouse, in vivo; for locomotor activity: ip
compound,measurement,setting,value
"CC(N)Cc1ccc2c(c1)OCO2 (racemic) [MDA, (±)-3,4-methylenedioxyamphetmaine]",enantiomer with higher Cmax,[1],S-enantiomers were higher
CNC(C)Cc1ccc(OC2OC(C(=O)O)C(O)C(O)C2O)c(OC)c1 (stereo not shown) [HMMA glucuronide],enantiomer with higher Cmax,[1],S-enantiomers were higher
CNC(C)Cc1ccc(OS(=O)(=O)O)c(OC)c1 (stereo not shown) [HMMA sulfate],enantiomer with higher Cmax,[1],Higher R-enantiomer Cmax
"CN[C@H](C)Cc1ccc2c(c1)OCO2 [R(−)-MDMA, (2R)-1-(1,3-benzodioxol-5-yl)-N-methylpropan-2-amine]",compartment entries (locomotor stimulant effect),C57 mice [2],did not increase compartment entries; also recorded: had no effects on locomotor activity
same,compartment entries (locomotor stimulant effect),C57 mice [2]; listed as R-(−) MDMA,no stimulant effect on the motor activity
same,compartment entries (locomotor stimulant effect),"BTBR mice [3]; 3.0 mg/kg IP, social novelty test, 3 mg/kg",reduced entries; also recorded: suppresses the locomotor activity
same,compartment entries (locomotor stimulant effect),BTBR mice [3]; all tested doses IP,do not influence locomotor activity
same,novelty preference (time spent with the dummy mouse),C57 mice [4]; 10.0 mg/kg IP,had no effects on locomotor activity (see FIG. 4) or novelty preference
same,novelty preference (time spent with the dummy mouse),C57 mice [4]; various doses IP,no systematic effects on novelty preference
same,sociability (time spent with the stranger mouse vs dummy),C57 mice [5]; 3.0 mg/kg IP,elicit significant effects on sociability
same,sociability (time spent with the stranger mouse vs dummy),C57 mice [5]; 10.0 mg/kg IP,largest effect on sociability
same,social novelty preference (new stranger mouse vs familiar mouse),C57 mice [6]; 3.0 mg/kg IP,elicit significant effects on sociability
same,social novelty preference (new stranger mouse vs familiar mouse),"C57 mice [6]; 10 mg/kg IP, 10 mg/kg",largest effect on social novelty preference
same,social novelty preference (new stranger mouse vs familiar mouse),"C57 mice [6]; 10 mg/kg IP, listed as R-MDMA, 10 mg/kg",strong preference for the new stranger mouse
same,pro-social behaviour,BTBR mice [7],promotes pro-social behaviour
same,effect on core temperature,C57 mice [8]; 10 mg/kg IP,"neither of the mixtures (e.g., exemplary composition 2(i)) nor pure R(−)-MDMA (e.g., exemplary composition 7) elicited significant effects on the core temperature"
same,effect on core temperature,C57 mice [8]; 30 mg/kg IP,neither of the mixtures nor pure R(−)-MDMA elicited significant effects on the core temperature
same,effect on core temperature,BTBR mice [9]; 30 mg/kg IP,no significant effects on core temperature were observed
same,effect on core temperature,BTBR mice [9]; various/increasing doses IP,did not elicit significant effects on core temperature
same,locomotor activity,BTBR mice [10]; 10 mg/kg IP,no significant motor stimulation was observed
same,locomotor activity,BTBR mice [10]; 30 mg/kg IP,no significant motor stimulation was observed
same,locomotor activity,C57 mice [11]; 10 mg/kg,did elicit significant motor stimulation
same,locomotor activity,C57 mice [11]; 30 mg/kg,did not elicit significant motor stimulation
"CN[C@@H](C)Cc1ccccc1 [S(+)-methamphetamine, S-methamphetamine]","locomotor activity, strain comparison C57 vs BTBR",C57 mice [11],no significant strain differences observed at any dose
same,locomotor effects vs saline,C57 mice [11],effects were not different from saline
CN[C@@H](C)Cc1ccccc1 [methamphetamine],novelty preference (time spent with the dummy mouse),C57 mice [4]; various doses IP,no systematic effects on novelty preference
same,sociability (time spent with the stranger mouse vs dummy),C57 mice [5]; various doses IP,no systematic effects on sociability
same,social novelty preference (new stranger mouse vs familiar mouse),C57 mice [6]; various doses IP,no systematic effects on social novelty preference
